# Data from ChEMBL document CHEMBL5465560, “Selectivity Literature for EUbOPEN Chemogenomic Library” (2024).
# Key:
# [1] = molecular target: ALK tyrosine kinase receptor (Homo sapiens, UniProt Q9UM73); assay: Selectivity interaction (KinomeScan (DiscoverX)) EUB0000618a ALK; conditions: at 10 µM
# [2] = molecular target: Interleukin-1 receptor-associated kinase 1 (Homo sapiens) (UniProt P51617); assay: Selectivity interaction (KinomeScan (DiscoverX)) EUB0000618a IRAK1; conditions: at 10 µM
# [3] = molecular target: Mitogen-activated protein kinase kinase kinase 10 (Homo sapiens) (UniProt Q02779); assay: Selectivity interaction (ProQinase) EUB0000171b MAP3K10
# Chain of Mitogen-activated protein kinase kinase kinase 10 (Homo sapiens) (Q02779 whole entry, looked up): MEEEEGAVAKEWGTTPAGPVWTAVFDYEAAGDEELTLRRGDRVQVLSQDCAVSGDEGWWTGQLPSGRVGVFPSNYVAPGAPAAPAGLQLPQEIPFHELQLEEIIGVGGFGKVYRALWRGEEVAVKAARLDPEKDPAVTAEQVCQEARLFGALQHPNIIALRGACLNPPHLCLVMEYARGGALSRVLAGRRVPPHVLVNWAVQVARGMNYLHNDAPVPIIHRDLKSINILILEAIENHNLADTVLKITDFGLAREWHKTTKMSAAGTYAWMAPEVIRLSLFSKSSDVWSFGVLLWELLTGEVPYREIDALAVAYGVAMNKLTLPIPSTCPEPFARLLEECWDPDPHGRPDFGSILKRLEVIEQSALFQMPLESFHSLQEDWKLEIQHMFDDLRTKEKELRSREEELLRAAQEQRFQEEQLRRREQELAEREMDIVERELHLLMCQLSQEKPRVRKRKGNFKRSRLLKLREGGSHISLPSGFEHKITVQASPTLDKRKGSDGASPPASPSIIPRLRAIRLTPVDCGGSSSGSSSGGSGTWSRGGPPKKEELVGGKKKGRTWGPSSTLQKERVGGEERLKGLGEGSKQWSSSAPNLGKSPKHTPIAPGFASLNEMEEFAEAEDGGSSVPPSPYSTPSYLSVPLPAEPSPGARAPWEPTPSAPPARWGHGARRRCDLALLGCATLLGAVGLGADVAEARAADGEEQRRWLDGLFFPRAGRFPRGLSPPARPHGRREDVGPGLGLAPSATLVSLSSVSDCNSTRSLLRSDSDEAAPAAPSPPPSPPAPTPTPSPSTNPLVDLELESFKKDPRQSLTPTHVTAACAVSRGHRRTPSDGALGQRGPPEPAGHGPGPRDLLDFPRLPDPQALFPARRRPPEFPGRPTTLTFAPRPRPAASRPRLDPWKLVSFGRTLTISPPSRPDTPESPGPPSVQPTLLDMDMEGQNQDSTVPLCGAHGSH
# [4] = molecular target: T1, Serine/threonine-protein kinase Nek9 (Homo sapiens) (UniProt Q8TD19); assay: Selectivity interaction (KinomeScan (DiscoverX)) EUB0000092b NEK9; conditions: at 10 µM
# T1 sequence (whole entry): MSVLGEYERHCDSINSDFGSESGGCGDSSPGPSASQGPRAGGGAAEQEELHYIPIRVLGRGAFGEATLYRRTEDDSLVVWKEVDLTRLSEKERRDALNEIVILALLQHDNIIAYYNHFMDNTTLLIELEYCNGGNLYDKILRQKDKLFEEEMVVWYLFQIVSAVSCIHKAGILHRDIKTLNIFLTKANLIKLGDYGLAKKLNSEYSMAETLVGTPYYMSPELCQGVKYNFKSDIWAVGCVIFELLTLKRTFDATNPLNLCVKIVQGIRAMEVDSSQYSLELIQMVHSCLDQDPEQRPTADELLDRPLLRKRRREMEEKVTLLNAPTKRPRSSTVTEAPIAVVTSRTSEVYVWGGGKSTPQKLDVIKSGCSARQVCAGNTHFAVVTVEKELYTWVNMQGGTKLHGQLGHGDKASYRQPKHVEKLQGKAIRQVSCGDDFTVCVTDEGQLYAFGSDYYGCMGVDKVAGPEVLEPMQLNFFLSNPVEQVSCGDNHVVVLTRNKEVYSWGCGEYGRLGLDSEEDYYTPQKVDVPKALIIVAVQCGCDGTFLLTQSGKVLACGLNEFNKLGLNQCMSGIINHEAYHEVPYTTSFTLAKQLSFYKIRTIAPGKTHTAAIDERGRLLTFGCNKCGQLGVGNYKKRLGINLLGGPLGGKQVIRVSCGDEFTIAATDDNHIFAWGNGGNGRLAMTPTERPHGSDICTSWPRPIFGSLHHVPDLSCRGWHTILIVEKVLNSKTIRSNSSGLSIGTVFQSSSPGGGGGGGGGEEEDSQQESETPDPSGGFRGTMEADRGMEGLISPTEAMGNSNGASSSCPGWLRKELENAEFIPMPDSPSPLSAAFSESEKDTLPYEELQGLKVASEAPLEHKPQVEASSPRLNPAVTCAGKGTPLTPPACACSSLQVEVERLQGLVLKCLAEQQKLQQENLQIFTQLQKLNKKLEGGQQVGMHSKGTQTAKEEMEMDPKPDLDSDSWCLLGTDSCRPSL
# [5] = molecular target: T2, Serine/threonine-protein kinase Sgk3 (Homo sapiens) (UniProt Q96BR1); assay: Selectivity interaction (KinomeScan (DiscoverX)) EUB0000092b SGK3; conditions: at 10 µM
# T2 sequence (whole entry): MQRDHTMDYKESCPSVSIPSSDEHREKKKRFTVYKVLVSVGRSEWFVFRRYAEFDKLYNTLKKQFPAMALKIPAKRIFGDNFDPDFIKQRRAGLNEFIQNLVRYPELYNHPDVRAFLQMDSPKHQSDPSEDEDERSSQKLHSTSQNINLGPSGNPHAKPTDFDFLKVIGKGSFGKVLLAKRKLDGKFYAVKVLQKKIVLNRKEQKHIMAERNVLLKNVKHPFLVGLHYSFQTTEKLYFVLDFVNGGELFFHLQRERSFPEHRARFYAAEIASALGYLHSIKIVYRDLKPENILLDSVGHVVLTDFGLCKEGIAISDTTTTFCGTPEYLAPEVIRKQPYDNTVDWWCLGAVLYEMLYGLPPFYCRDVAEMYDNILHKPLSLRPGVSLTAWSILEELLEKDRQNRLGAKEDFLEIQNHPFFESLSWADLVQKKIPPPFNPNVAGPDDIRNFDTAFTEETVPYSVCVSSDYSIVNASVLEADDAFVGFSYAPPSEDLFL
# [6] = molecular target: T3, Serine/threonine-protein kinase TAO1 (Homo sapiens) (UniProt Q7L7X3); assay: Selectivity interaction (KinomeScan (DiscoverX)) EUB0000695a TAOK1; conditions: at 100 nM
# T3 sequence (whole entry): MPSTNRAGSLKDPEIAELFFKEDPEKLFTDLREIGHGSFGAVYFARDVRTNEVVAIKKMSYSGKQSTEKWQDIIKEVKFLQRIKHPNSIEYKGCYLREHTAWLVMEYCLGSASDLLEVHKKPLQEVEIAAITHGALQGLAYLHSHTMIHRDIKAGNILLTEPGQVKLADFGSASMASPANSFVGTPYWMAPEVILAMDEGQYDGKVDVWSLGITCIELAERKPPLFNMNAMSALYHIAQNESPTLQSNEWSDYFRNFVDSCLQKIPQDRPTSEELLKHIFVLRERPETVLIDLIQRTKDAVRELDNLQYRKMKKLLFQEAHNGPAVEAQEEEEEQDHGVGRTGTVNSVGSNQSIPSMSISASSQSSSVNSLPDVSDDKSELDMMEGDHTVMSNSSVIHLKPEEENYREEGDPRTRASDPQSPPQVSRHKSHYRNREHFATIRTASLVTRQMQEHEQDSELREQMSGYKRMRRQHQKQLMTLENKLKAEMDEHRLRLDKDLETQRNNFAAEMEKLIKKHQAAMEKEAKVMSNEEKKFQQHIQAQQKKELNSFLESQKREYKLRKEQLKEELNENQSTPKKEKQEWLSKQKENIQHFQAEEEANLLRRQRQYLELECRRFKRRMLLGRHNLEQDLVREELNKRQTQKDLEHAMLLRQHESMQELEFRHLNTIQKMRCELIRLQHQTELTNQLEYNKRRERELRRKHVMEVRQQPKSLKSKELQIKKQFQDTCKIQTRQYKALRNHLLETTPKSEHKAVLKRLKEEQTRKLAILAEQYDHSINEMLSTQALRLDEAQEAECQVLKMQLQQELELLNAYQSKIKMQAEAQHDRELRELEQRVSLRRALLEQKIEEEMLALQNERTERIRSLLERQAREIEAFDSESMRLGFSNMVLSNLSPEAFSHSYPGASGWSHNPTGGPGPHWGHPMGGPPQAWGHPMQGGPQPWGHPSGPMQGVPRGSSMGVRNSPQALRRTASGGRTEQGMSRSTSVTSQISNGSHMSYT
# Chain of Interleukin-1 receptor-associated kinase 1 (Homo sapiens) (P51617 whole entry, looked up): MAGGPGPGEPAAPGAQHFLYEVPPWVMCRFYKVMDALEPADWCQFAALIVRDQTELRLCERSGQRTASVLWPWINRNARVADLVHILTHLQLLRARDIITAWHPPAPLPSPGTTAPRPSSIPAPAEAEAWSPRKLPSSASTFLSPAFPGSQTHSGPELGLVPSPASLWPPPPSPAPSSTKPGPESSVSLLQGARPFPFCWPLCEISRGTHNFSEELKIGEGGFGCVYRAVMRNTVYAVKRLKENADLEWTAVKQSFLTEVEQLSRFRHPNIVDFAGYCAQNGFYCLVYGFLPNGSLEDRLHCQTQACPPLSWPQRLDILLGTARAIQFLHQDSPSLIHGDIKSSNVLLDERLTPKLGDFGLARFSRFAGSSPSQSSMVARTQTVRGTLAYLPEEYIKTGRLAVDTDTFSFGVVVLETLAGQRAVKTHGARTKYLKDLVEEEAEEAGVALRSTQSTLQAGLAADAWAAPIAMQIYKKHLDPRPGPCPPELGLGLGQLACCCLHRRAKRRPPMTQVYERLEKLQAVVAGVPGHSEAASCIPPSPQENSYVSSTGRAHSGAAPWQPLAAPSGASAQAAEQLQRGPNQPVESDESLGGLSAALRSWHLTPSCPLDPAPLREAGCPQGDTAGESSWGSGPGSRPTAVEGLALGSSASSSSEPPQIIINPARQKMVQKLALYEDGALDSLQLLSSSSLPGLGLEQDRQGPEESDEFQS
# Chain of ALK tyrosine kinase receptor (Q9UM73 19-1620 limits assumed): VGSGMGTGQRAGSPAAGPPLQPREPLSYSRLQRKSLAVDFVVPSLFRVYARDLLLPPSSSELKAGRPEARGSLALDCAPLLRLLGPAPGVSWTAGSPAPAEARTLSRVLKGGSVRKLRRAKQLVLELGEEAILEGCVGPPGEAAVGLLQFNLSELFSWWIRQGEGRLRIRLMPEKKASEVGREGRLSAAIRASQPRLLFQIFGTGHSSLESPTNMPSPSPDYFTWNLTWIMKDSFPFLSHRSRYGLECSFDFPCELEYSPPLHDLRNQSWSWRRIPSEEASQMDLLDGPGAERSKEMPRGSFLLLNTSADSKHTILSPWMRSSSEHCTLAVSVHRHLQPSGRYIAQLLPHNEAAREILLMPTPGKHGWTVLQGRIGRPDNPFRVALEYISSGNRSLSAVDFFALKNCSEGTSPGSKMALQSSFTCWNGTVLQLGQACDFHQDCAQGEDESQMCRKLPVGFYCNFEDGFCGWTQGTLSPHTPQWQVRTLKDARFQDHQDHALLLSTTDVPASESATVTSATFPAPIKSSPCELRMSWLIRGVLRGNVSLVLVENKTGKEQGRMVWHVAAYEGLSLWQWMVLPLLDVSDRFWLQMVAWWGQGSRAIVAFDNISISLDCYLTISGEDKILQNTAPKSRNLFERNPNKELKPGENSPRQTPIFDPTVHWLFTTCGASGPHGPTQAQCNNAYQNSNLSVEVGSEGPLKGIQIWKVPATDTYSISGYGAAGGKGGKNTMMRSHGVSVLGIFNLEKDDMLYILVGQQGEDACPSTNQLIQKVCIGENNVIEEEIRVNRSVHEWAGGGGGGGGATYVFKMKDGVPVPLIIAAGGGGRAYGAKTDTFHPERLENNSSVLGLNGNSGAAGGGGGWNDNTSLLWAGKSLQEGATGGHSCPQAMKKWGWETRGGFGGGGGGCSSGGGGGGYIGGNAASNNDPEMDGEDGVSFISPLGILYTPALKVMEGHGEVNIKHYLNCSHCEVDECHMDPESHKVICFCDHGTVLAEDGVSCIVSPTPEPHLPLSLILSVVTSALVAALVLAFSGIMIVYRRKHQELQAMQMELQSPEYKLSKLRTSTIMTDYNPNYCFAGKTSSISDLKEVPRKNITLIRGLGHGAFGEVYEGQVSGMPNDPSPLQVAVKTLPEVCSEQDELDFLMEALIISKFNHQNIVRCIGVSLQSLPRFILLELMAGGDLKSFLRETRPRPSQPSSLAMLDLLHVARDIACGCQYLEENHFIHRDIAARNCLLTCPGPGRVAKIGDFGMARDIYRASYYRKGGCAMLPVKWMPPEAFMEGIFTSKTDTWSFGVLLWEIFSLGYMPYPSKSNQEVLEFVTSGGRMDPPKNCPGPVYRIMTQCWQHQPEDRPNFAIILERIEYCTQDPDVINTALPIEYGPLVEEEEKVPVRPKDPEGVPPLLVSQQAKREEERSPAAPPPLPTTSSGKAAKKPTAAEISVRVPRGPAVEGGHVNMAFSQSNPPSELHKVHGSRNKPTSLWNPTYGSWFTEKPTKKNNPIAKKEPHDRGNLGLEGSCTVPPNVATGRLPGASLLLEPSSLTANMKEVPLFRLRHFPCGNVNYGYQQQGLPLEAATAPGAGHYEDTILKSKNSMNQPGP
smiles,measurement,setting,value
O[C@H]1CC[C@H](Nc2ncc3nc(Nc4c(F)cc(F)cc4F)n([C@H]4CCOC4)c3n2)CC1,% of control,[1],100%
same,% of control,[2],38%
C=CC(=O)Nc1cccc(C(=O)Nc2ccc(Nc3cc(-c4[nH]c(SC)nc4C)ccn3)cc2)c1,% of control,[3]; at 1 µM,27%
same,% of control,[3]; at 5 µM,4%
CCC(=O)N1CCN(c2ccc(-n3c(=O)ccc4cnc5ccc(-c6cnc7ccccc7c6)cc5c43)cc2C(F)(F)F)CC1,% of control,[4],100%
same,% of control,[5],100%
Cc1cc(F)c(C(=O)Nc2cccc(-c3nncn3C(C)C)n2)cc1-n1cnc(C2CC2)c1,% of control,[6],100%
